{"source": "patent US20260265694A1", "about": "“USE OF A VITISIN COMPOUND FOR THE PRODUCTION OF HEMATOPOIETIC CELLS” (ETABLISSEMENT FRANCAIS DU SANG, priority 2022, published 2026)", "format_in_all_cases": "cell-based, human", "key": {"[1]": {"tested_on": "SP cells (CD34+DCVlow) isolated from peripheral blood CD34+ cells", "experiment": "ERYTHRO 1 PROTOCOL on sorted SP cells", "conditions": "SPs, 10 μM, as early as D7, FIG. 4B", "protocol": "SP cells are identifiable by virtue of their property of expelling certain dyes such as Hoescht or Dye Cycle Violet (DCV)). This expulsion takes place by means of […] ATP Binding Cassette (ABCG2) pumps (Brunet de la Grange et al., 2013). To identify SP cells within previously isolated CD34^+ cells, they are incubated with a DCV dye (5 μM) in DMEM^+ medium (Dulbecco's Modified Eagle's Medium (DMEM), 2% FCS, 1% HEPES) for 2 h at 37° C. and in the dark. After incubation, all manipulations up to final cell sorting are performed on ice and in PBS^+ medium (PBS, 2% FCS), a glucose- and calcium-depleted medium which stops the expulsion pumps. […] CD34^+ cells having a low fluorescence intensity for the DCV marker (CD34^+ SP cells) are analyzed (UV 350 nm or violet 405 nm), sorted and recovered using an ARIA cell sorter (Becton Dickinson). […]\nIn order to test the effect of vitisin B in this context, the culturing is performed in the absence and presence of vitisin B: • CTRL condition: Absence of vitisin B throughout the entire protocol. • Test condition: Presence of vitisin B at 5, 10, 15, 20 or 30 μM for the entire duration of the protocol (phase 1+phase 2). During the culture protocol, the differentiation product is analyzed by quantifying proliferation (counting) and analyzing erythrocyte differentiation markers by means of flow cytometry, using the markers CD71 and CD235a. c. […]"}, "[2]": {"tested_on": "BFU-E and CFU-E erythrocyte progenitors from placental blood CD34+ cells", "experiment": "CFC clonogenic assay of BFU-E and CFU-E during phase 1 of ERYTHRO 2", "conditions": "10 μM", "protocol": "• CTRL condition: cells are cultured for 7 days in the absence of vitisin B. • TEST condition: cells are cultured for 7 days in the presence of vitisin B at 10 μM.\nTo this end, the CFC (Colony Forming Cells) test is used. Committed progenitors are capable of generating colonies after culture in a semisolid medium composed of methylcellulose and supplemented with cytokines. Thus, committed progenitors (here BFU-Es and CFU-Es) produced during erythrocyte cultures can be counted.\nThis analysis of BFU-E and CFU-E production was performed only during phase 1 of PROTOCOL 2. Cells grown and harvested on days 4, 8 and 11 of phase 1 were seeded in a ready-to-use cytokine-supplemented methylcellulose H4034 kit (Stem Cell Technology, Meylan, France) at concentrations of 150 cells/[…] H4034 for day 4 and 300 cells/250"}, "[3]": {"tested_on": "CD34+ cells from peripheral blood", "experiment": "AMPLIFICATION PROTOCOL: ex vivo amplification of hematopoietic progenitors", "protocol": "This is a strategy for the amplification of hematopoietic progenitors. The culture is formed as follows: CD34^+ cells from peripheral blood are isolated (as indicated in section II.A.1), and cultured for 12 days in Stem Span II medium (Stem Cell Technologies) supplemented with cytokines: SCF 100 ng/mL, FLT3-L 100 ng/mL, TPO 20 ng/mL, G-CSF 10 ng/mL. The amplification product is analyzed by quantification of proliferation (count on Malassez slides) and phenotypic analysis of CD34^+ cell subpopulations by flow cytometry. […] Vitisin B is also compared with the following stilbene-type molecules at 10 μM concentration: Resveratrol, Pallidol, E-Viniferin, Ampelopsin, Oxyresveratrol, Picateatannol, Gnetol\nAt the end of the hematopoietic cell amplification protocol, an analysis of cell proliferation and amplification of immature and committed cell populations is performed.\nCell proliferation is evaluated by counting cells on Malassez slides with Trypan blue exclusion of dead cells.\nThe amplification of cell populations is based on a phenotypic analysis relating to the evolution of the expression of membrane markers CD34 and CD133 by flow cytometry. These markers make it possible to define more or less immature cell populations organized hierarchically as follows: CD34^+CD133^+->CD34^+CD133^neg->CD34^negCD133^neg. To this end, cells are incubated with anti-CD34 (1:100,000) (BD Pharmingen) and anti-CD133 (1:100,000) (BD Pharmingen) antibodies for 15 minutes. The cells are then rinsed with a PBS solution and centrifuged (430×g, 10 min, 4° C.). After resuspension of the cell pellets in PBS, the cells are analyzed by flow cytometry (FACSCantoll, Becton Dickinson, San Jose, CA).\nThe proportions of each phenotypic population thus observed and the total amount of cells make it possible to calculate the rate of amplification of the most immature cells (CD34^+CD133+) compared with the amplification of more committed progenitors (CD34^+CD133^neg and CD34^negCD133^neg)."}}, "data": [{"smiles": "Oc1ccc(C2Oc3ccc(/C=C/c4cc(O)cc5c4[C@H](c4cc(O)cc(O)c4)[C@@H](c4ccc(O)cc4)O5)cc3C2c2cc(O)cc3c2C(c2cc(O)cc(O)c2)C(c2ccc(O)cc2)O3)cc1", "note": "(stereo in doubt) [vitisin B, 5-[(2R,2'S,3R,3'S)-5-[(1E)-2-[(2S,3S)-3-(3,5-Dihydroxyphenyl)-2,3-dihydro-6-hydroxy-2-(4-hydroxyphenyl)-4-benzofuranyl]ethenyl]-2,2′,3,3′-tetrahydro-6′-hydroxy-2,2′-bis(4-hydroxyphenyl)[3,4′-bibenzofuran]-3′-yl]-1,3-benzenediol]", "values": [{"measurement": "reduction relative to the control in CD71 membrane expression", "setting": "[1]", "result": "up to 40%"}, {"measurement": "appearance of primitive erythrocyte progenitors (BFU-Es)", "setting": "[2]; clonogenic assay at D4, D8, D11, FIG. 7A", "result": "accelerated the appearance"}, {"measurement": "appearance of more differentiated progenitors (CFU-Es)", "setting": "[2]; clonogenic assay at D4, D8, D11, FIG. 7B", "result": "accelerated the appearance"}, {"measurement": "amplification of the total amount of progenitors of the CD34+ phenotype", "setting": "[3]; 10 μM, 12-day culture, FIG. 1", "result": "up to 250%"}, {"measurement": "amplification of the CD34+CD133neg subpopulation (erythrocyte potential)", "setting": "[3]; 10 μM, FIG. 1", "result": "induces amplification"}, {"measurement": "effect on the proportion and total amount of CD34+CD133neg cells", "setting": "[3]; 10 μM, FIG. 2", "result": "convincing effect"}, {"measurement": "effect of increasing the dose on total CD34+ and CD34+CD133neg populations", "setting": "[3]; 50 μM versus 10 μM", "result": "no additional effect"}]}]}
